Experimental data reported in paper PMC8424644, “Thermodynamic Stability and Speciation of Ga(III) and Zr(IV) Complexes with High-Denticity Hydroxamate Chelators” (Inorganic Chemistry, 2021).
Where two headings read alike, the source gives them in different places.

Key:
[1] = parameters: method as in ref 24 (DFOB), 2 (THPN), 25,58 (3,4,3-LI-HOPO), 25,59 (DTPA); details: (re)calculated from constants of original publications, pH 7.4, cL = 10 μM, cZr(IV) = 1 μM; ref 24 (DFOB), 2 (THPN), 25,58 (3,4,3-LI-HOPO), 25,59 (DTPA); cited from earlier work
[2] = parameters: method as in PMID 31940188; details: calculations by Holland; cited from earlier work
[3] = Fe(III)-L + Zr(IV)-NTA metal–metal competition UV–vis titrations; assay type: physicochemical; details: Fe(III)-DFOB + Zr(IV)-NTA competition
[4] = parameters: method as in ref 43 (DFOB), 38 (DFOE), 11 (DOTA), 54 (NOTA), 55 (H2hox), 56 (PrP9), 57 (HBED); details: (re)calculated from constants of original publications, pH 7.4, cL = 10 μM, cGa(III) = 1 μM; ref 43 (DFOB), 38 (DFOE), 11 (DOTA), 54 (NOTA), 55 (H2hox), 56 (PrP9), 57 (HBED); cited from earlier work
[5] = parameters: method as in PMID 11666621; details: acidic range; cited from earlier work
[6] = cited from earlier work
[7] = acidic range; cited from earlier work
[8] = cited from earlier work; for pKa attributed to the deprotonation of a water molecule in the Zr(IV) complex: ref 24 (DFOB), 27 (EDTA)
[9] = pZr calculation (ligand sequestering ability); assay type: physicochemical; details: pZr = −log[Zr(IV)free], pH 7.4, cL = 10 μM, cZr(IV) = 1 μM
Description: (§1) Despite a large variety of PET chelators synthesized and tested in order to provide strong coordination of Ga(III) and Zr(IV) in vivo, until now it is has been hard to avoid the release of these metal ions in the body. Here we report two new Ga(III) and Zr(IV) hydroxamate chelators, designed to achieve an efficient sequestering of these metal ions but also to understand how the cyclization and the introduction of an additional hydroxamate group influences the stability of Zr(IV) complexes. Therefore, it is important to evaluate and compare the Ga(III)- and Zr(IV)-sequestering abilities of H3L1 and H4L2 with those of other chelators. However, the direct comparison of the stability constants of metal complexes is not straightforward, and other tools taking into account all the physicochemical properties of the ligands, i.e. their denticity, coordination modes, and acid–base properties, should be used.[52] In order to reliably compare the chelating abilities of H3L1 and H4L2 toward Ga(III) and Zr(IV) ions, the pM values were calculated. pFe was originally introduced by Raymond for the comparison of iron-siderophore systems;[53] pGa = −log[Ga(III)free] and pZr = −log[Zr(IV)free] were calculated at pH 7.4 with cL = 10 μM and cGa(III)/Zr(IV) = 1 μM (Table 2).

[10] = pGa calculation (ligand sequestering ability); assay type: physicochemical; details: pGa = −log[Ga(III)free], pH 7.4, cL = 10 μM, cGa(III) = 1 μM
Description: as §1

[11] = pFe calculation (ligand sequestering ability); assay type: physicochemical; details: pH=7.4, cL=10 μM, metal 1 μM
Description: Despite a large variety of PET chelators synthesized and tested in order to provide strong coordination of Ga(III) and Zr(IV) in vivo, until now it is has been hard to avoid the release of these metal ions in the body. Here we report two new Ga(III) and Zr(IV) hydroxamate chelators, designed to achieve an efficient sequestering of these metal ions but also to understand how the cyclization and the introduction of an additional hydroxamate group influences the stability of Zr(IV) complexes. Therefore, it is important to evaluate and compare the Ga(III)- and Zr(IV)-sequestering abilities of […] and […] with those of other chelators. […] page 15: 100 100 [ZrL4]+ [ZrL3]+ [ZrL4H ] -1 80 [ZrL3H ] 80 2+ -1 [ZrHL4] […] Experimental section. Ligands' sequestering ability Table S3. pFe values with various synthetic and biological chelators a Ligand pFe Chelating groups and ligands geometry […] 24.3 3 hydroxamate groups in a cyclic arrangement […] 23.3 4 hydroxamate groups in a linear arrangement […] 26.9 3 hydroxamate groups in a cyclic arrangement […] 23.61 3 hydroxamate groups in a linear arrangement […] DFOE 27.73 3 hydroxamate groups in a cyclic arrangement […] protonation and stability constants given in original publications; the hydrolysis constants of Fe(III) ions were taken from the literature14 and are given in the experimental section 15 (also on this page, place not known: […]

[12] = taken from the literature, cited from earlier work
[13] = taken from the literature, ref 38 (H3L3), 35 (H3L4), 36,38 (DFOE)

SMILES: O=C(NCCCN(CCCCN(CCCNC(=O)c1cccc(=O)n1O)C(=O)c1cccc(=O)n1O)C(=O)c1cccc(=O)n1O)c1cccc(=O)n1O [3,4,3-LI-HOPO]
- pZr [1]: 44.0[25],[58]

SMILES: O=C1CCN(O)C(=O)CCCNC(=O)CCN(O)C(=O)CCCNC(=O)CCN(O)C(=O)CCCNC(=O)CCN(O)C(=O)CCCN1 [CTH36]
- log β [Zr(L)] predicted from computational calculations [2]: 52.84

SMILES: CC(=O)N(O)CCCCCNC(=O)CCC(=O)N(O)CCCCCNC(=O)CCC(=O)N(O)CCCCCNC(=O)CCC(=O)N(O)CCCCCN [DFO*]
- log β [Zr(L)] predicted from computational calculations [2]: 51.56

SMILES: CC(=O)N(O)CCCCCNC(=O)CCC(=O)N(O)CCCCCNC(=O)CCC(=O)N(O)CCCCCN [DFOB]
- log β [ZrHDFOB] ([3]; spectra collected after 1h incubation): 45.9
- log β [ZrHDFOB] ([3]; spectra collected after 24h incubation): 46.1(2)
- pGa [4]: 21.6[43]
- pZr [1]: 32.2[24]
- log β [Zr(L)] predicted from computational calculations [2]: 41.20
- pKa of the Th(IV) complex [5]: 1.9
- log Kamine (protonation constant of the amino group) [6]: 10.97
- pKa1 (protonation constant of the Ga(III) complex) [7]: 0.78
- pKa2 (protonation constant of the Ga(III) complex) [7]: 1.10
- log β [ZrH(DFOB)OH] [8]: 40.04
- log β [ZrHDFOB] ([8]; different ionic strength): 47.7
- pKa attributed to the deprotonation of a water molecule in the Zr(IV) complex [8]: 6.36

SMILES: O=C1CCC(=O)N(O)CCCCCNC(=O)CCC(=O)N(O)CCCCCNC(=O)CCC(=O)N(O)CCCCCN1 [DFOE, desferrioxamine E, reference compound]
- pZr [9]: 31.0
- pGa [4]: 25.2[38]
- log K LH2 (ligand protonation; log K2) [6, 13]: 9.42
- log K LH3 (ligand protonation; log K3) [6, 13]: 8.65
- log K LH (ligand protonation; log K1) [6, 13]: 9.89
- log β LH (ligand protonation) [6, 13]: 9.89

SMILES: O=C(O)CN1CCN(CC(=O)O)CCN(CC(=O)O)CCN(CC(=O)O)CC1 [DOTA, 1,4,7,10-tetraazacyclododecane-1,4,7,10-tetraacetic acid]
- pGa [4]: 20.5[11]

SMILES: O=C(O)CN(CCN(CC(=O)O)CC(=O)O)CCN(CC(=O)O)CC(=O)O [DTPA]
- pZr [1]: 32.3[25],[59]

SMILES: O=C(O)CN(CCN(CC(=O)O)CC(=O)O)CC(=O)O [EDTA, ethylenediaminetetraacetic acid]
- pKa attributed to the deprotonation of a water molecule in the Zr(IV) complex [8]: 6.2

SMILES: Oc1cccc2ccc(CNCCNCc3ccc4cccc(O)c4n3)nc12 [H2hox]
- pGa [4]: 28.4[55]

SMILES: O=C1CCCCCN(O)C(=O)CCNC(=O)CCCCCN(O)C(=O)CCNC(=O)CCCCCN(O)C(=O)CCN1 [H3L3]
- pGa [10]: 25.4
- pZr [9]: 31.5
- pFe [11]: 26.9
- log K LH (ligand protonation; log K1) [6, 13]: 9.89
- log β LH (ligand protonation) [6, 13]: 9.89

SMILES: CN(O)C(=O)CCC(=O)NCCOCC(C)(COCCNC(=O)CCC(=O)N(C)O)COCCNC(=O)CCC(=O)N(C)O [H3L4]
- pGa [10]: 21.9
- pZr [9]: 32.6
- log K LH2 (ligand protonation; log K2) [6, 13]: 8.97
- log K LH3 (ligand protonation; log K3) [6, 13]: 8.26
- log K LH (ligand protonation; log K1) [6, 13]: 9.50
- log β LH2 (ligand protonation) [6, 13]: 18.47
- log β LH3 (ligand protonation) [6, 13]: 26.73
- log β LH (ligand protonation) [6, 13]: 9.50
- log β [FeHL] [12]: 29.82
- log β [FeL] ([12]; ref 38 (H3L3), 35 (H3L4), 36,38 (DFOE)): 27.34

SMILES: O=C(O)CN(CCN(CC(=O)O)Cc1ccccc1O)Cc1ccccc1O [HBED]
- pGa [4]: 28.0[57]

SMILES: O=C(O)CN1CCN(CC(=O)O)CCN(CC(=O)O)CC1 [NOTA]
- pGa [4]: 27.4[54]

SMILES: O=C(O)CCP(=O)(O)CN1CCN(CP(=O)(O)CCC(=O)O)CCN(CP(=O)(O)CCC(=O)O)CC1 [PrP9]
- pGa [4]: 23.1[56]
